Patent US8309546B2, “Morpholinopurine derivatives” (Daiichi Sankyo Company, Limited, priority 2008, dated 2012)

Legend:
[1] = tested on: S6 (serine 235 and 236) phosphorylation in AN3CA tumor; assay: S6 phosphorylation inhibition assay in xenograft; type: in vivo, female nude mouse; conditions: Mus musculus, AN3-CA, oral, 6 hr after dosing
Procedure: (§1) A tumor section was prepared from a human endometrial cancer cell strain AN3CA tumor mass formed in a female nude mouse as subcutaneously transplanted tumor and a xenograft model was prepared by subcutaneously transplanting the tumor to a female nude mouse. The test compound at a predetermined concentration was orally administered. After a predetermined time, the anesthetized mouse was exsanguinated to death, and a tumor mass was isolated. The tumor mass was crushed using a lysis buffer containing inhibitors of proteases and dephosphorylating enzymes (Cell Signaling Technology, Inc.) and the supernatant was separated by centrifugation to obtain a tumor extract. The protein content of the tumor extract was measured using DC Protein Assay Kit (Bio-Rad Laboratories, Inc.) and phosphorylation conditions of Akt (threonine 308) and S6 (serine 235 and 236) were analyzed by a usual technique of western blotting using tumor extracts containing the same amount of protein. The primary antibody and the secondary antibody used for detecting each molecule were rabbit anti-phospho-Akt(T308) antibody and HRP-labeled goat anti-rabbit IgG antibody or mouse anti-phospho-S6(S235/236) antibody and HRP-labeled sheep anti-mouse IgG antibody.
(§2) The signal intensity detected using an image analyzer Typhoon 9400 (GE Healthcare) was quantified, and the phosphorylation inhibition rate (%) was calculated by the following formula. Phosphorylation inhibitory activity (%) of Akt and S6 after treatment with test compound=100−100×(B/A) A: Signal intensity derived from phosphorylated protein in tumor mass isolated from mouse untreated with test compound B: Signal intensity derived from phosphorylated protein in tumor mass isolated from mouse treated with test compound

[2] = tested on: Akt (threonine 308) phosphorylation in AN3CA tumor; assay: Akt phosphorylation inhibition assay in xenograft; type: in vivo, female nude mouse; conditions: Mus musculus, AN3-CA, oral, 6 hr after dosing
Procedure: as §1, §2

[3] = tested on: human colon cancer cell strain HT29; assay: Cell growth inhibition test (MTT), HT29; type: cell-based; conditions: HT-29, 72 h, HT29, 3 days culture, read-out: concentration exhibiting anti-cell effect (GI50)
Method in brief: (§3)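 MTT read-out at 540 nm after 4 h formazan formation gives living cell count following 3-day compound exposure at 37° C, 5% CO2. Seeding: 5000 AN3CA, 1000 IGROV1, 5000 HT29 cells/well. Growth rate T/C % = 100×[(B−C)/(A−C)], with C taken before dosing; GI50 = concentration giving 50% growth.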

[4] = tested on: human ovary cancer cell strain IGROV1; assay: Cell growth inhibition test (MTT), IGROV1; type: cell-based; conditions: IGROV-1, 72 h, IGROV1, 3 days culture, read-out: concentration exhibiting anti-cell effect (GI50)
Method in brief: as §3

[5] = tested on: human endometrial cancer cell strain AN3CA; assay: Cell growth inhibition test (MTT), AN3CA; type: cell-based; conditions: AN3-CA, 72 h, 3 days culture, read-out: concentration exhibiting anti-cell effect (GI50)
Method in brief: as §3

PI3Kα = PI3Kα (Homo sapiens, UniProt P42336); assay: PI3K kinase activity inhibition assay; type: biochemical; conditions: Kinase-Glo Plus ATP detection, read-out: IC50 against PI3K
Chain of PI3Kα (P42336 whole entry, species assumed): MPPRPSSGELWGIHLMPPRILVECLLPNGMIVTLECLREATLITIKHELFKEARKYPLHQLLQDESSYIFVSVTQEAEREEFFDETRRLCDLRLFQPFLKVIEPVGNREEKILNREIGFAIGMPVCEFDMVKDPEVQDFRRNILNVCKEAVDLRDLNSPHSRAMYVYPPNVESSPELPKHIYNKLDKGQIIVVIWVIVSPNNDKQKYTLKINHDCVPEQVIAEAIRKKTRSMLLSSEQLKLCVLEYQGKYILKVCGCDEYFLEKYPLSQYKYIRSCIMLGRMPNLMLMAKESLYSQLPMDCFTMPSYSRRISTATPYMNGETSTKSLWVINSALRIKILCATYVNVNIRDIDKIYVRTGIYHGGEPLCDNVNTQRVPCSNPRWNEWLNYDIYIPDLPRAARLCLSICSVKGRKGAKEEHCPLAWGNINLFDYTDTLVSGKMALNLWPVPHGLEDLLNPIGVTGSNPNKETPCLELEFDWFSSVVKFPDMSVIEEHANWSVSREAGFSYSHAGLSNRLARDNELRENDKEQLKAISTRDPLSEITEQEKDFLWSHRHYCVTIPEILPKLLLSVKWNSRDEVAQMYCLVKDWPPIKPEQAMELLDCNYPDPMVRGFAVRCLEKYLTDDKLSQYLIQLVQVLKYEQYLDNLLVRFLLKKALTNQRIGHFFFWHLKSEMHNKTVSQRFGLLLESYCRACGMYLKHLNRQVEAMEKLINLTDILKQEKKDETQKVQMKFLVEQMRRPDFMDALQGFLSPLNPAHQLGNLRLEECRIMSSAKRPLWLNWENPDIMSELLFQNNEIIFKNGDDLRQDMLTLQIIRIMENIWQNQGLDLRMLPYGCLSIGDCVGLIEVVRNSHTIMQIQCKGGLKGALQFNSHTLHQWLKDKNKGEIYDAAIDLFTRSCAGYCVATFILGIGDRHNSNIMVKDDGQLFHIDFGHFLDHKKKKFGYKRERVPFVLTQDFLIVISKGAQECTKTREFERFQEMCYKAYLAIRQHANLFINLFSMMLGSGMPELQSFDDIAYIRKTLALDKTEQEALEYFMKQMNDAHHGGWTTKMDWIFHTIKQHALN
Chain of PI3Kα (P27986 whole entry partner, species assumed): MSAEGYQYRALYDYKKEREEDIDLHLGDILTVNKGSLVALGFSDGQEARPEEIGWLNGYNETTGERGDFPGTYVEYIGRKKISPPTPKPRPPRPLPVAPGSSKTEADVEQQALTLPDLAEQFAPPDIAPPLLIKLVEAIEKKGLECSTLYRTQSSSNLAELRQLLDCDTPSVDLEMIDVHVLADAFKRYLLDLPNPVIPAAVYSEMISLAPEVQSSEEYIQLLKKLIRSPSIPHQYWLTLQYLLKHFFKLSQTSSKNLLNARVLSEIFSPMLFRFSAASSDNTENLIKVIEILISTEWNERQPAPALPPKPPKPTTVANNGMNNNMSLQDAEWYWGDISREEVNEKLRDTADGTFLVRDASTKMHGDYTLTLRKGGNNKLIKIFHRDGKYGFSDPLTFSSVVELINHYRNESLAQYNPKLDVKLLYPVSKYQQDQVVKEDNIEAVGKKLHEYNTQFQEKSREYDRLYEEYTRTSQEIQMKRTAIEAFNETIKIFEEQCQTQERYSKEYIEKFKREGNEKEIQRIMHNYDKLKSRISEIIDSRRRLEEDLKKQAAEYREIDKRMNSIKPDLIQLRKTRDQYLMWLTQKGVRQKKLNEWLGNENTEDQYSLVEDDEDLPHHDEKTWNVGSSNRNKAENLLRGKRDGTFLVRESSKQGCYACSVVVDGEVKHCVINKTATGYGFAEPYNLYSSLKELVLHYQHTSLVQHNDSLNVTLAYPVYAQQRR
Method in brief: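 PI3Kα (50 nM solution) was reacted with 30 μM ATP and 45 μM PIP2 solutions, each in HEPES pH 7.4 with MgCl2 and DTT, for 2 h at room temperature. Remaining ATP was measured by Kinase-Glo Plus luminescence, and inhibition was derived from ATP consumed. IC50 was taken from curve fitting of the serial dilutions.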

SMILES	inhibition at 10 mg/kg [1]	inhibition at 10 mg/kg [2]	GI50 [3]	GI50 [4]	GI50 [5]	IC50 (PI3Kα)
CC(=O)N1CCN(c2nc3c(N4CCOCC4)nc(-c4cnc(N)nc4)nc3n2CC(F)(F)F)C[C@H]1C [Example 60, 5-{8-[(3R)-4-Acetyl-3-methylpiperazin-1-yl]-6-morpholin-4-yl-9-(2,2,2-trifluoroethyl)-9H-purin-2-yl}pyrimidin-2-amine]	> 90%	> 60%	≤ 5 µM	≤ 5 µM	≤ 5 µM	< 10 nM
C[C@@H]1CN(c2nc3c(N4CCOCC4)nc(-c4cnc(N)nc4)nc3n2CC(F)(F)F)CCN1S(C)(=O)=O [Example 61, 5-{8-[(3R)-3-Methyl-4-(methylsulfonyl)piperazin-1-yl]-6-morpholin-4-yl-9-(2,2,2-trifluoroethyl)-9H-purin-2-yl}pyrimidin-2-amine]	> 90%	> 60%	≤ 5 µM	≤ 5 µM	≤ 5 µM	< 10 nM
C[C@H]1CN(c2nc3c(N4CCOCC4)nc(-c4cnc(N)nc4)nc3n2CC(F)(F)F)CCN1S(C)(=O)=O [Example 62, 5-{8-[(3S)-3-Methyl-4-(methylsulfonyl)piperazin-1-yl]-6-morpholin-4-yl-9-(2,2,2-trifluoroethyl)-9H-purin-2-yl}pyrimidin-2-amine]	> 90%	30 to 60%	≤ 5 µM	≤ 5 µM	≤ 5 µM	< 10 nM
CC(=O)N1CCN(c2nc3c(N4CCOCC4)nc(-c4cnc(N)nc4)nc3n2CC(F)(F)F)C[C@@H]1C [Example 63, 5-{8-[(3S)-4-Acetyl-3-methylpiperazin-1-yl]-6-morpholin-4-yl-9-(2,2,2-trifluoroethyl)-9H-purin-2-yl}pyrimidin-2-amine]	> 90%	> 60%	≤ 5 µM	≤ 5 µM	≤ 5 µM	< 10 nM
CS(=O)(=O)N1CCN(c2nc3c(N4CCOCC4)nc(-c4cnc(N)nc4)nc3n2CC(F)F)CC1 [Example 64, 5-{9-(2,2-Difluoro-ethyl)-8-[4-(methylsulfonyl)piperazin-1-yl]-6-morpholin-4-yl-9H-purin-2-yl}pyrimidin-2-amine]	> 90%	30 to 60%	≤ 5 µM	≤ 5 µM	≤ 5 µM	10 to 20 nM
CC(=O)C(=O)N1CCN(c2nc3c(N4CCOCC4)nc(-c4cnc(N)nc4)nc3n2CC(F)(F)F)CC1 [Example 65, 1-{4-[2-(2-Aminopyrimidin-5-yl)-6-morpholin-4-yl-9-(2,2,2-trifluoroethyl)-9H-purin-8-yl]piperazin-1-yl}-1-oxoacetone]	> 90%	30 to 60%	≤ 5 µM	≤ 5 µM	≤ 5 µM	< 10 nM
CN(C)C(=O)C(=O)N1CCN(c2nc3c(N4CCOCC4)nc(-c4cnc(N)nc4)nc3n2CC(F)(F)F)CC1 [Example 66, 2-{4-[2-(2-Aminopyrimidin-5-yl)-6-morpholin-4-yl-9-(2,2,2-trifluoroethyl)-9H-purin-8-yl]piperazin-1-yl}-N,N-dimethyl-2-oxoacetamide]	70 to 90%	30 to 60%	≤ 5 µM	≤ 5 µM	≤ 5 µM	< 10 nM
Nc1ncc(-c2nc(N3CCOCC3)c3nc(N4CCN(C(=O)CO)CC4)n(CC(F)(F)F)c3n2)cn1 [Example 67, 2-{4-[2-(2-Aminopyrimidin-5-yl)-6-morpholin-4-yl-9-(2,2,2-trifluoroethyl)-9H-purin-8-yl]piperazin-1-yl}-2-oxoethanol]	70 to 90%	30 to 60%	≤ 5 µM	≤ 5 µM	≤ 5 µM	< 10 nM
